Test results taken from patent publication US9255090B2, “Heterocyclyl derivatives and their use as prostaglandin D2 receptor modulators” (Actelion Pharmaceuticals Ltd., priority 2012, dated 2016).

Molecular target: hCRTH2 receptor (Homo sapiens (Human), UniProt Q9Y5Y4)
Assay: hCRTH2 receptor membranes radioligand (3H-PGD2) displacement assay
Format: binding
Details: 3H-PGD2 radioligand displacement, HEK293-hCRTH2 membranes
Summary of the method: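 Compound was first mixed with buffer, then 3H-PGD2 was added at 2.5 nM, and the reaction was started with hCRTH2 membranes from HEK293 cells at 20 μg/well. After 90 min at room temperature, mixtures were filtered and washed with ice-cold buffer, and retained radioactivity was counted.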

Sequence of hCRTH2 receptor (Q9Y5Y4 whole entry): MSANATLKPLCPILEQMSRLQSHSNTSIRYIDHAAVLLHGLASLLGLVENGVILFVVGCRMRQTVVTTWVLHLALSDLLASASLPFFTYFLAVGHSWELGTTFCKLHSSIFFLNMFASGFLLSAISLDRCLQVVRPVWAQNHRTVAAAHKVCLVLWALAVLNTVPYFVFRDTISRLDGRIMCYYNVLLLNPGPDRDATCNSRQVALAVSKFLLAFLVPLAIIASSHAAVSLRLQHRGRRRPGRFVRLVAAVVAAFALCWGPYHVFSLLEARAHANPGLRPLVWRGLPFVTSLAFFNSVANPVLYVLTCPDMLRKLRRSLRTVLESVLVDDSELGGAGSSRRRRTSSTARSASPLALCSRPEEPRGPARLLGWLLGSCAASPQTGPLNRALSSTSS

| SMILES | IC50 |
| --- | --- |
| COc1ccc(CC(=O)O)cc1-c1ccc(F)c2c1CN(C(=O)CC(C)c1ccncc1)CC2 (racemic) [Example 267, (±)-{3-[5-Fluoro-2-(3-pyridin-4-yl-butyryl)-1,2,3,4-tetrahydro-isoquinolin-8-yl]-4-methoxy-phenyl}-acetic acid formiate] | 86.1 nM |
| CCOc1ccc(CC(=O)O)cc1-c1ccc(F)c2c1CN(C(=O)OCCC(C)(C)OC)CC2 [Example 383, 8-(5-Carboxymethyl-2-ethoxy-phenyl)-5-fluoro-3,4-dihydro-1H-isoquinoline-2-carboxylic acid 3-methoxy-3-methyl-butyl ester] | 19 nM |
| COc1ccc(CC(=O)O)cc1-c1ccc(F)c2c1CCN(C(=O)CCCc1ccccc1)C2 [Example 100, {3-[8-Fluoro-2-(4-phenyl-butyryl)-1,2,3,4-tetrahydro-isoquinolin-5-yl]-4-methoxy-phenyl}-acetic acid] | 105 nM |
| CCOc1ccc(CC(=O)O)cc1-c1ccc(F)c2c1CN(C(=O)OCCC(C)(C)O)CC2 [Example 382, 8-(5-Carboxymethyl-2-ethoxy-phenyl)-5-fluoro-3,4-dihydro-1H-isoquinoline-2-carboxylic acid 3-hydroxy-3-methyl-butyl ester] | 14 nM |
| CCOc1ccc(CC(=O)O)cc1-c1ccc(F)c2c1CN(C(=O)CC1CCc3ccccc31)CC2 (racemic) [Example 219] | 9.1 nM |
| O=C(O)Cc1ccc(OC2CC2)c(-c2ccc(F)c3c2CN(C(=O)OCc2ccccc2)CC3)c1 [Example 430, 8-(5-Carboxymethyl-2-cyclopropoxy-phenyl)-5-fluoro-3,4-dihydro-1H-isoquinoline-2-carboxylic acid benzyl ester] | 14.9 nM |
| CCOc1ccc(CC(=O)O)cc1-c1ccc(F)c2c1CN(C(=O)/C=C/c1ccn(C)n1)CC2 [Example 337, (4-Ethoxy-3-{5-fluoro-2-[(E)-3-(1-methyl-1H-pyrazol-3-yl)-acryloyl]-1,2,3,4-tetrahydro-isoquinolin-8-yl}-phenyl)-acetic acid] | 30.4 nM |
| COc1ccc(CC(=O)O)cc1-c1ccc(F)c2c1CN(C(=O)CC(C)(C)C)CC2 [Example 129, {3-[2-(3,3-Dimethyl-butyryl)-5-fluoro-1,2,3,4-tetrahydro-isoquinolin-8-yl]-4-methoxy-phenyl}-acetic acid] | 913 nM |
| O=C(O)Cc1cc(Cl)cc(-c2ccc(F)c3c2CN(C(=O)OCc2ccccc2)CC3)c1 [Example 19, 8-(3-Carboxymethyl-5-chloro-phenyl)-5-fluoro-3,4-dihydro-1H-isoquinoline-2-carboxylic acid benzyl ester] | 20.2 nM |
| O=C(O)Cc1ccc(-c2ccc(F)c3c2CN(C(=O)CC2CCOc4ccccc42)CC3)c(OCC(F)(F)F)c1 (racemic) [Example 285] | 3.5 nM |
| CCOCC(=O)N1CCc2c(F)ccc(-c3cc(CC(=O)O)ccc3OC)c2C1 [Example 46, {3-[2-(2-Ethoxy-acetyl)-5-fluoro-1,2,3,4-tetrahydro-isoquinolin-8-yl]-4-methoxy-phenyl}-acetic acid] | 774 nM |
| COc1ccc(CC(=O)O)cc1-c1ccc(F)c2c1CN(C(=O)[C@@H]1C[C@H]1c1ccc(Cl)cc1Cl)CC2 (racemic) [Example 98, (±)-(3-{2-[trans-2-(2,4-Dichloro-phenyl)-cyclopropanecarbonyl]-5-fluoro-1,2,3,4-tetrahydro-isoquinolin-8-yl}-4-methoxy-phenyl)-acetic acid] | 10.1 nM |
| COc1ccc(CC(=O)O)cc1-c1ccc(F)c2c1CN(C(=O)COc1ccccc1)CC2 [Example 43, {3-[5-Fluoro-2-(2-phenoxy-acetyl)-1,2,3,4-tetrahydro-isoquinolin-8-yl]-4-methoxy-phenyl}-acetic acid] | 30.2 nM |
| CCOc1ccc(CC(=O)O)cc1-c1ccc(F)c2c1CN(C(=O)CC(c1ccccn1)C1CC1)CC2 (racemic) [Example 318] | 114 nM |
| COc1ccc(CC(=O)O)cc1-c1ccc(Cl)c2c1CN(C(=O)[C@@H]1C[C@H]1c1ccc(Cl)cc1)CC2 [Example 68, (3-{5-Chloro-2-[(1R,2R)-2-(4-chloro-phenyl)-cyclopropanecarbonyl]-1,2,3,4-tetrahydro-isoquinolin-8-yl}-4-methoxy-phenyl)-acetic acid] | 3.75 nM |
| C[C@H](CC(=O)N1CCc2c(F)ccc(-c3cc(CC(=O)O)ccc3OCC(F)(F)F)c2C1)c1ccccc1 [Example 301, [3-[5-Fluoro-2-((R)-3-phenyl-butyryl)-1,2,3,4-tetrahydro-isoquinolin-8-yl]-4-(2,2,2-trifluoro-ethoxy)-phenyl]-acetic acid] | 3.6 nM |
| CCOc1cc(CC(=O)O)ccc1-c1ccc(F)c2c1CN(C(=O)OCc1ncc(C)cc1F)CC2 [Example 387, 8-(4-Carboxymethyl-2-ethoxy-phenyl)-5-fluoro-3,4-dihydro-1H-isoquinoline-2-carboxylic acid 3-fluoro-5-methyl-pyridin-2-ylmethyl ester] | 8 nM |
| CCOc1ccc(CC(=O)O)cc1-c1ccc(F)c2c1CN(C(=O)OCC(C)CC)CC2 (racemic) [Example 380] | 4.2 nM |
| COc1ccc(CC(=O)O)cc1-c1ccc(C(F)(F)F)c2c1CN(C(=O)C1CC1)CC2 [Example 82, [3-(2-Cyclopropanecarbonyl-5-trifluoromethyl-1,2,3,4-tetrahydro-isoquinolin-8-yl)-4-methoxy-phenyl]-acetic acid] | 250 nM |
| CCOc1cc(CC(=O)O)ccc1-c1ccc(F)c2c1CN(C(=O)CCc1ccc(F)cc1)CC2 [Example 315, (3-Ethoxy-4-{5-fluoro-2-[3-(4-fluoro-phenyl)-propionyl]-1,2,3,4-tetrahydro-isoquinolin-8-yl}-phenyl)-acetic acid] | 5.1 nM |
| CC(C)c1cc(CC(=O)O)ccc1-c1ccc(F)c2c1CN(C(=O)OCc1ccccc1)CC2 [Example 216, 8-(4-Carboxymethyl-2-isopropyl-phenyl)-5-fluoro-3,4-dihydro-1H-isoquinoline-2-carboxylic acid benzyl ester] | 19.4 nM |
| COc1ccc(CC(=O)O)cc1-c1ccc(F)c2c1CN(C(=O)CC(c1ccccc1)C(C)C)CC2 (racemic) [Example 264] | 253 nM |
| O=C(O)Cc1ccc(OCC(F)(F)F)c(-c2ccc(F)c3c2CN(C(=O)CC2COCc4ccccc42)CC3)c1 (racemic) [Example 305] | 3.4 nM |
| COc1ccc(CC(=O)O)cc1-c1ccc(F)c2c1CN(C(=O)CC(c1ccccc1)c1ccc(Cl)cc1)CC2 (racemic) [Example 97, (±)-(3-{2-[3-(4-Chloro-phenyl)-3-phenyl-propionyl]-5-fluoro-1,2,3,4-tetrahydro-isoquinolin-8-yl}-4-methoxy-phenyl)-acetic acid] | 48.1 nM |
| CCOc1cc(CC(=O)O)ccc1-c1ccc(F)c2c1CN(C(=O)OCCC(C)C)CC2 [Example 393, 8-(4-Carboxymethyl-2-ethoxy-phenyl)-5-fluoro-3,4-dihydro-1H-isoquinoline-2-carboxylic acid 3-methyl-butyl ester] | 49.4 nM |
| Cc1cccc(C(C)CC(=O)N2CCc3c(F)ccc(-c4cc(CC(=O)O)ccc4OC(C)C)c3C2)n1 (racemic) [Example 294] | 3.2 nM |
| CCOc1cc(CC(=O)O)ccc1-c1ccc(F)c2c1CN(C(=O)NCc1ccccc1F)CC2 [Example 440, {3-Ethoxy-4-[5-fluoro-2-(2-fluoro-benzylcarbamoyl)-1,2,3,4-tetrahydro-isoquinolin-8-yl]-phenyl}-acetic acid] | 3.8 nM |
